We go through eight compounds from PubChem BioAssay AID1259407 (Chemical Carcinogenesis Research Information System (CCRIS), 2018).

The data set has as its system CCRIS mutagenicity, Ames/micronucleus/aberration tests. The experiment in a line: CCRIS mutagenicity studies.
Where [1] appears, read: Test System: AMES SALMONELLA TYPHIMURIUM, Strain/Indicator: TA98, Metabolic Activation: NONE, Method: PREINCUBATION
Setting [2] is: Test System: AMES SALMONELLA TYPHIMURIUM, Strain/Indicator: TA98, Metabolic Activation: RAT, LIVER, S-9, AROCLOR 1254 (10%), Method: PREINCUBATION
[3] abbreviates: Test System: AMES SALMONELLA TYPHIMURIUM, Strain/Indicator: TA100, Metabolic Activation: NONE, Method: PREINCUBATION
Setting [4] is: Test System: AMES SALMONELLA TYPHIMURIUM, Strain/Indicator: TA100, Metabolic Activation: RAT, LIVER, S-9, AROCLOR 1254 (10%), Method: PREINCUBATION
Setting [5] is: Test System: AMES SALMONELLA TYPHIMURIUM, Strain/Indicator: TA98, Metabolic Activation: RAT, LIVER, S-9, AROCLOR 1254, Method: STANDARD PLATE.

Activity calls are given as the source filed them. How the calls were made is not given here.

As to `Oc1ccc2cc(SSc3ccc4cc(O)ccc4c3)ccc2c1`, the mutagenic call is, setting by setting: (Test System: AMES SALMONELLA TYPHIMURIUM, Strain/Indicator: TA97, Metabolic Activation: HAMSTER, LIVER, S-9, AROCLOR 1254 (10 OR 30%), Method: PREINCUBATION) “inactive; negative”; (Test System: AMES SALMONELLA TYPHIMURIUM, Strain/Indicator: TA97, Metabolic Activation: NONE, Method: PREINCUBATION) “inactive; negative”; (Test System: AMES SALMONELLA TYPHIMURIUM, Strain/Indicator: TA97, Metabolic Activation: RAT, LIVER, S-9, AROCLOR 1254 (10 OR 30%), Method: PREINCUBATION) “inactive; negative”; (Test System: AMES SALMONELLA TYPHIMURIUM, Strain/Indicator: TA98, Metabolic Activation: HAMSTER, LIVER, S-9, AROCLOR 1254 (10 OR 30%), Method: PREINCUBATION) “inactive; negative”; under setting [1], “inactive; negative”; (Test System: AMES SALMONELLA TYPHIMURIUM, Strain/Indicator: TA98, Metabolic Activation: RAT, LIVER, S-9, AROCLOR 1254 (5 OR 30%), Method: PREINCUBATION) “inactive; negative”. Moreover, the mutagenic call under setting [2] is “inactive; negative”; the mutagenic call (Test System: AMES SALMONELLA TYPHIMURIUM, Strain/Indicator: TA100, Metabolic Activation: HAMSTER, LIVER, S-9, AROCLOR 1254 (10 OR 30%), Method: PREINCUBATION) is “inactive; negative”; the mutagenic call under setting [3] was “inactive; negative”; the mutagenic call (Test System: AMES SALMONELLA TYPHIMURIUM, Strain/Indicator: TA100, Metabolic Activation: RAT, LIVER, S-9, AROCLOR 1254 (5 OR 30%), Method: PREINCUBATION) is “inactive; negative”; the mutagenic call under setting [4] is “inactive; negative”; the mutagenic call (Test System: AMES SALMONELLA TYPHIMURIUM, Strain/Indicator: TA102, Metabolic Activation: HAMSTER, LIVER, S-9, AROCLOR 1254 (10 OR 30%), Method: PREINCUBATION) is “inactive; negative”. In addition, the mutagenic call runs as follows: (Test System: AMES SALMONELLA TYPHIMURIUM, Strain/Indicator: TA102, Metabolic Activation: NONE, Method: PREINCUBATION) “inactive; negative”; (Test System: AMES SALMONELLA TYPHIMURIUM, Strain/Indicator: TA102, Metabolic Activation: RAT, LIVER, S-9, AROCLOR 1254 (10 OR 30%), Method: PREINCUBATION) “inactive; negative”; (Test System: AMES SALMONELLA TYPHIMURIUM, Strain/Indicator: TA1535, Metabolic Activation: RAT, LIVER, S-9, AROCLOR 1254 (5, 10 OR 30%), Method: PREINCUBATION) “inactive; negative”; (Test System: AMES SALMONELLA TYPHIMURIUM, Strain/Indicator: TA1538, Metabolic Activation: RAT, LIVER, S-9, AROCLOR 1254 (5, 10 OR 30%), Method: PREINCUBATION) “inactive; negative”.
For `FC(F)(F)CC(F)(F)F`, the mutagenic call by setting is: (Test System: AMES SALMONELLA TYPHIMURIUM, Strain/Indicator: TA97, Metabolic Activation: NONE, Method: CLOSED GLASS VESSEL) “inactive; negative”; (Test System: AMES SALMONELLA TYPHIMURIUM, Strain/Indicator: TA97, Metabolic Activation: RAT LIVER S-9, AROCLOR 1254, Method: CLOSED GLASS VESSEL) “inactive; negative”; (Test System: AMES SALMONELLA TYPHIMURIUM, Strain/Indicator: TA98, Metabolic Activation: NONE, Method: CLOSED GLASS VESSEL) “inactive; negative”; (Test System: AMES SALMONELLA TYPHIMURIUM, Strain/Indicator: TA98, Metabolic Activation: RAT LIVER S-9, AROCLOR 1254, Method: CLOSED GLASS VESSEL) “inactive; negative”; (Test System: AMES SALMONELLA TYPHIMURIUM, Strain/Indicator: TA100, Metabolic Activation: NONE, Method: CLOSED GLASS VESSEL) “inactive; negative”; (Test System: AMES SALMONELLA TYPHIMURIUM, Strain/Indicator: TA100, Metabolic Activation: RAT LIVER S-9, AROCLOR 1254, Method: CLOSED GLASS VESSEL) “inactive; negative”. Besides, the mutagenic call was “inactive; negative” (Test System: AMES SALMONELLA TYPHIMURIUM, Strain/Indicator: TA1535, Metabolic Activation: NONE, Method: CLOSED GLASS VESSEL); “inactive; negative” (Test System: AMES SALMONELLA TYPHIMURIUM, Strain/Indicator: TA1535, Metabolic Activation: RAT LIVER S-9, AROCLOR 1254, Method: CLOSED GLASS VESSEL); “inactive; negative” (Test System: ESCHERICHIA COLI, Strain/Indicator: WP2 UVR A, Metabolic Activation: NONE, Method: CLOSED GLASS VESSEL); “inactive; negative” (Test System: ESCHERICHIA COLI, Strain/Indicator: WP2 UVR A, Metabolic Activation: RAT LIVER S-9, AROCLOR 1254, Method: CLOSED GLASS VESSEL).
On to `Nc1cc([N+](=O)[O-])ccc1C(=O)O`, for which the mutagenic call under setting [1] was “active; positive”; the mutagenic call (Test System: AMES SALMONELLA TYPHIMURIUM, Strain/Indicator: TA98, Metabolic Activation: RAT, LIVER, S-9, AROCLOR, Method: PREINCUBATION) was “active; positive”; the mutagenic call (Test System: CHINESE HAMSTER OVARY, Strain/Indicator: CHO-K1-BH4 (HGPRT)/6-THIOGUANINE, Metabolic Activation: NONE) was “inactive; negative”; the mutagenic call (Test System: CHINESE HAMSTER OVARY, Strain/Indicator: CHO-K1-BH4 (HGPRT)/6-THIOGUANINE, Metabolic Activation: S-9) was “inactive; negative”.
Regarding `[N-]=[N+]=CC(=O)OC[C@H](N)C(=O)O`, the mutagenic call is, setting by setting: (Test System: AMES SALMONELLA TYPHIMURIUM, Strain/Indicator: TA100, Metabolic Activation: NONE, Method: STANDARD PLATE) “active; positive”; (Test System: E. COLI WP2, Strain/Indicator: WP2, Metabolic Activation: NONE, Method: STANDARD PLATE) “active; positive”; (Test System: UDS RAT HEPATOCYTES, Strain/Indicator: BROMODEOXYURIDINE INCORP, Metabolic Activation: NONE, Method: FLOW CYTOMETRIC ANALYSIS) “active; positive”; (Test System: UDS RAT HEPATOCYTES, Strain/Indicator: THY INCORP, Metabolic Activation: NONE, Method: AUTORADIOGRAPHY) “active; positive”.
As to `Cc1ccc2c(c1)-c1ccccc1C2C` (stereo unspecified), the mutagenic call is, setting by setting: under setting [5], “active; positive”; (Test System: AMES SALMONELLA TYPHIMURIUM, Strain/Indicator: TA100, Metabolic Activation: RAT, LIVER, S-9, AROCLOR 1254, Method: STANDARD PLATE) “active; positive”.
`CN(CO)N=O`: the mutagenic call (Test System: CHINESE HAMSTER V-79, Strain/Indicator: V-79/OUABAIN, Metabolic Activation: NONE) is “active; positive”.
With `Cc1ccc(OP(=O)(Oc2ccc(C)cc2C)Oc2ccc(C)cc2C)c(C)c1`, the mutagenic call by setting is: (Test System: AMES SALMONELLA TYPHIMURIUM, Strain/Indicator: TA98, Metabolic Activation: HAMSTER, LIVER, S-9, AROCLOR 1254 (10%), Method: PREINCUBATION) “inactive; negative”; under setting [1], “inactive; negative”; under setting [2], “inactive; negative”; (Test System: AMES SALMONELLA TYPHIMURIUM, Strain/Indicator: TA100, Metabolic Activation: HAMSTER, LIVER, S-9, AROCLOR 1254 (10%), Method: PREINCUBATION) “inactive; negative”; under setting [3], “inactive; negative”; under setting [4], “inactive; negative”. In addition, the mutagenic call reads like this: (Test System: AMES SALMONELLA TYPHIMURIUM, Strain/Indicator: TA1535, Metabolic Activation: HAMSTER, LIVER, S-9, AROCLOR 1254 (10%), Method: PREINCUBATION) “inactive; negative”; (Test System: AMES SALMONELLA TYPHIMURIUM, Strain/Indicator: TA1535, Metabolic Activation: NONE, Method: PREINCUBATION) “inactive; negative”; (Test System: AMES SALMONELLA TYPHIMURIUM, Strain/Indicator: TA1535, Metabolic Activation: RAT, LIVER, S-9, AROCLOR 1254 (10%), Method: PREINCUBATION) “inactive; negative”; (Test System: AMES SALMONELLA TYPHIMURIUM, Strain/Indicator: TA1537, Metabolic Activation: HAMSTER, LIVER, S-9, AROCLOR 1254 (10%), Method: PREINCUBATION) “inactive; negative”; (Test System: AMES SALMONELLA TYPHIMURIUM, Strain/Indicator: TA1537, Metabolic Activation: NONE, Method: PREINCUBATION) “inactive; negative”; (Test System: AMES SALMONELLA TYPHIMURIUM, Strain/Indicator: TA1537, Metabolic Activation: RAT, LIVER, S-9, AROCLOR 1254 (10%), Method: PREINCUBATION) “inactive; negative”.
In the case of `O=[N+]([O-])c1ccc2cc3c(cc2c1)C=C[C@@H](O)[C@@H]3O`, the mutagenic call was “active; positive” (Test System: AMES SALMONELLA TYPHIMURIUM, Strain/Indicator: TA98, Metabolic Activation: NONE, Method: STANDARD PLATE) and “active; positive” under setting [5].
